Data as given in article PMC6259751, “Investigating Spectrum of Biological Activity of 4- and 5-Chloro-2-hydroxy-N-[2-(arylamino)-1-alkyl-2-oxoethyl]benzamides” (Molecules, 2011).
Values after ≈ are worked out from the molar mass of the structure shown. Read-outs that look alike come from different tables or passages of the source.

Tests used:
[1] = Lipophilicity determination by RP-HPLC (capacity factor k / log k); assay type: physicochemical; conditions: C18 column, MeOH 70% / H2O 30%, isocratic
Procedure: Hydrophobicities (log P/Clog P) of compounds 8 and 9 were calculated using two commercially available programs (ChemOffice Ultra 10.0 and ACD/LogP) and measured by means of RP-HPLC determination of capacity factors k with subsequent calculation of log k. The procedure was performed under isocratic conditions with methanol as an organic modifier in the mobile phase using an end-capped non-polar C18 stationary RP column. The results are shown in Table 1 and illustrated in Figure 1.
A Waters Alliance 2695 XE HPLC separation module and a Waters Photodiode Array Detector 2996 (Waters Corp., Milford, MA, USA) were used. A Symmetry® C18 5 μm, 4.6 × 250 mm, Part No. WAT054275 (Waters Corp., Milford, MA, USA) chromatographic column was used. The HPLC separation process was monitored by Empower™ 2 Chromatography Data Software, Waters 2009 (Waters Corp., Milford, MA, USA). A mixture of MeOH p.a. (70%) and H2O-HPLC – Mili-Q Grade (30%) was used as a mobile phase. The total flow of the column was 1.0 mL/min, injection volume, 30 μL, column temperature, 30 °C and sample temperature, 10 °C. The detection wavelength of 210 nm was chosen. The KI methanolic solution was used for the dead time (tD) determination. Retention times (tR) were measured in minutes. The capacity factors k were calculated using the Empower™ 2 Chromatography Data Software according to formula k = (tR - tD)/tD, where tR is the retention time of the solute, whereas tD denotes the dead time obtained using an unretained analyte. Log k, calculated from the capacity factor k, is used as the lipophilicity index converted to log P scale.

[2] = tested on: Mycobacterium tuberculosis MTB CNCTC My 331/88; assay: In vitro antimycobacterial evaluation; assay type: cell-based; conditions: IC90 value
[3] = tested on: Mycobacterium avium MA CNCTC My 330/88; assay: In vitro antimycobacterial evaluation; assay type: cell-based; conditions: IC90 value
[4] = tested on: Mycobacterium kansasii MK CNCTC My 235/80; assay: In vitro antimycobacterial evaluation; assay type: cell-based; conditions: IC90 value
[5] = tested on: Candida tropicalis 156; assay: In vitro antifungal susceptibility testing (broth microdilution); assay type: cell-based; conditions: M27-A2 for yeasts, IC80 value
[6] = tested on: Trichophyton mentagrophytes 445; assay: as above; assay type: cell-based; conditions: M38-A for moulds, IC50 value, read-out: MIC TM
[7] = tested on: Staphylococcus aureus CCM 4516/08; assay: In vitro antibacterial susceptibility testing (broth microdilution); conditions: read-out: MIC SA
[8] = tested on: methicilin resistant Staphylococcus aureus H 5996/08; assay: as above
[9] = tested on: Staphylococcus epidermidis H 6966/08; assay: as above
[10] = tested on: Enterococcus sp. J 14365/08; assay: as above; conditions: read-out: MIC EF
[11] = tested on: photosynthetic electron transport (PET) in spinach chloroplasts; assay: Inhibition of photosynthetic electron transport (PET) in spinach chloroplasts; assay type: biochemical, Spinacia oleracea L.; conditions: DCPIP photoreduction
Procedure: Chloroplasts were prepared from spinach (Spinacia oleracea L.) according to Masarovicova and Kralova. The inhibition of photosynthetic electron transport (PET) in spinach chloroplasts was determined spectrophotometrically (Genesys 6, Thermo Scientific, USA), using an artificial electron acceptor 2,6-dichlorophenol-indophenol (DCIPP) according to Kralova et al., and the rate of photosynthetic electron transport was monitored as a photoreduction of DCPIP. The measurements were carried out in phosphate buffer (0.02 mol/L, pH 7.2) containing sucrose (0.4 mol/L), MgCl2 (0.005 mol/L) and NaCl (0.015 mol/L). The chlorophyll content was 30 mg/L in these experiments and the samples were irradiated (~100 W/m^2) from 10 cm distance with a halogen lamp (250 W) using a 4 cm water filter to prevent warming of the samples. The studied compounds were dissolved in DMSO due to their limited water solubility. […] The inhibitory efficiency of the studied compounds was expressed by IC50 values, i.e. by molar concentration of the compounds causing 50% decrease in the oxygen evolution rate relative to the untreated control.

[12] = H6966/08, 24 h, read-out: MIC SE
[13] = H6966/08, 48 h, read-out: MIC SE

| Structure (SMILES) | log k [1] | MIC ([2]; 14h) | MIC ([2]; 21h) | MIC ([3]; 14h) | MIC ([3]; 21h) | MIC ([4]; 14h) | MIC ([4]; 21h) | MIC ([5]; 24h) | MIC ([5]; 48h) | MIC ([6]; 72h) | MIC ([6]; 120h) | MIC ([7]; CCM4516, 24 h) | MIC ([7]; CCM4516, 48 h) | MIC ([8]; MRSA, 24 h, read-out: MIC MRSA) | MIC ([8]; MRSA, 48 h, read-out: MIC MRSA) | MIC [9, 12] | MIC [9, 13] | MIC ([10]; SP.J14365/08, 24 h) | MIC ([10]; SP.J14365/08, 48 h) | IC50 [11] | further results |
| --- | --- | --- | --- | --- | --- | --- | --- | --- | --- | --- | --- | --- | --- | --- | --- | --- | --- | --- | --- | --- | --- |
| C[C@@H](NC(=O)c1ccc(Cl)cc1O)C(=O)Nc1ccc(Cl)cc1 [9b, 4-Chloro-N-{(1R)-2-[(4-chlorophenyl)-amino]-1-methyl-2-oxoethyl}-2-hydroxy benzamide] | 0.4921 | 32 µM (≈ 11.3 µg/mL) | 62.5 µM (≈ 22.1 µg/mL) | 125 µM (≈ 44.2 µg/mL) | 125 µM (≈ 44.2 µg/mL) | 125 µM (≈ 44.2 µg/mL) | 125 µM (≈ 44.2 µg/mL) | 250 µM (≈ 88.3 µg/mL) | 250 µM (≈ 88.3 µg/mL) | 250 µM (≈ 88.3 µg/mL) | 250 µM (≈ 88.3 µg/mL) | 7.81 µM (≈ 2.76 µg/mL) | 7.81 µM (≈ 2.76 µg/mL) | 7.81 µM (≈ 2.76 µg/mL) | 7.81 µM (≈ 2.76 µg/mL) | 1.95 µM (≈ 0.689 µg/mL) | 1.95 µM (≈ 0.689 µg/mL) | 500 µM (≈ 177 µg/mL) | 500 µM (≈ 177 µg/mL) | – | MIC ([8]; read-out: activity against methicillin-resistant Staphylococcus aureus (MIC)): 7.81 µM (≈ 2.76 µg/mL); MIC ([9]; H6966/08, read-out: activity against S. epidermidis (MIC)): 1.95 µM (≈ 0.689 µg/mL) |
| CC(C)[C@@H](NC(=O)c1ccc(Cl)cc1O)C(=O)Nc1ccc(Cl)cc1 [9d] | 0.6832 | 62.5 µM (≈ 23.8 µg/mL) | 62.5 µM (≈ 23.8 µg/mL) | 62.5 µM (≈ 23.8 µg/mL) | 62.5 µM (≈ 23.8 µg/mL) | 62.5 µM (≈ 23.8 µg/mL) | 62.5 µM (≈ 23.8 µg/mL) | > 125 µM | > 125 µM | 7.81 µM (≈ 2.98 µg/mL) | 7.81 µM (≈ 2.98 µg/mL) | > 500 µM | > 500 µM | > 500 µM | > 500 µM | > 500 µM | > 500 µM | > 500 µM | > 500 µM | – | – |
| O=C(N[C@@H](Cc1ccccc1)C(=O)Nc1ccc(Cl)cc1)c1ccc(Cl)cc1O [9e] | 0.7540 | 32 µM (≈ 13.7 µg/mL) | 32 µM (≈ 13.7 µg/mL) | 32 µM (≈ 13.7 µg/mL) | 62.5 µM (≈ 26.8 µg/mL) | 32 µM (≈ 13.7 µg/mL) | 62.5 µM (≈ 26.8 µg/mL) | 125 µM (≈ 53.7 µg/mL) | 125 µM (≈ 53.7 µg/mL) | 125 µM (≈ 53.7 µg/mL) | 125 µM (≈ 53.7 µg/mL) | > 250 µM | > 250 µM | > 250 µM | > 250 µM | > 250 µM | > 250 µM | > 500 µM | > 500 µM | – | – |
| CC(C)[C@@H](NC(=O)c1ccc(Cl)cc1O)C(=O)Nc1ccc(Br)cc1 [9g] | 0.7353 | – | – | – | – | – | – | – | – | – | – | – | – | – | – | – | – | – | – | 24 µM | – |
| CC(C)[C@H](NC(=O)c1ccc(Cl)cc1O)C(=O)Nc1ccc(C(F)(F)F)cc1 [9h] | 0.7892 | – | – | – | – | – | – | – | – | – | – | – | – | – | – | – | – | – | – | 14.2 µM | – |
| Cc1ccc(NC(=O)[C@@H](NC(=O)c2ccc(Cl)cc2O)C(C)C)cc1 [9i] | 0.5902 | – | – | – | – | – | – | – | – | – | – | – | – | – | – | – | – | – | – | 37.3 µM | – |
| COc1ccc(NC(=O)[C@@H](NC(=O)c2ccc(Cl)cc2O)C(C)C)cc1 [9j] | 0.3623 | – | – | – | – | – | – | – | – | – | – | – | – | – | – | – | – | – | – | 35.7 µM | – |
